Source: the supplement of paper PMC10307832

How the values were obtained:
Experiment in all cases: relative viability (nuclei count vs DMSO), 5 days (fraction); higher = more cells survive
DM3189 + Trametinib = compound: C1CN(CCN1)C2=CC=C(C=C2)C3=CN4C(=C(C=N4)C5=CC=NC6=CC=CC=C56)N=C3 [DM3189] + CC(=O)Nc1cccc(-n2c(=O)n(C3CC3)c(=O)c3c(Nc4ccc(I)cc4F)n(C)c(=O)c(C)c32)c1 [Trametinib] (partner 0.02 µM)
Summary of the method: (§1)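 Lung cancer cell lines were seeded in 1536-well plates and dosed by pin tool the next day, with either a single drug or a fixed anchor-drug dose combined with five library-drug doses (not always all listed) spaced in √10 steps. Five days later, one step fixed the cells and stained their nuclei (final 0.05% Triton X-100, 1% formaldehyde, 1 ug/ml Hoechst), and nuclei were counted on 4× images. Relative viability is the nuclei count in treated wells divided by the count in vehicle wells, and each value is the median of duplicate plates.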

DM3189 + Linsitinib = compound: C1CN(CCN1)C2=CC=C(C=C2)C3=CN4C(=C(C=N4)C5=CC=NC6=CC=CC=C56)N=C3 [DM3189] + C[C@]1(O)C[C@@H](c2nc(-c3ccc4ccc(-c5ccccc5)nc4c3)c3c(N)nccn32)C1 [Linsitinib] (partner 1 µM)
Summary of the method: as §1

DM3189 + Pemetrexed = compound: C1CN(CCN1)C2=CC=C(C=C2)C3=CN4C(=C(C=N4)C5=CC=NC6=CC=CC=C56)N=C3 [DM3189] + Nc1nc2[nH]cc(CCc3ccc(C(=O)N[C@@H](CCC(=O)O)C(=O)O)cc3)c2c(=O)[nH]1 [Pemetrexed] (partner 0.2 µM)
Summary of the method: as §1

DM3189 + Crizotinib = compound: C1CN(CCN1)C2=CC=C(C=C2)C3=CN4C(=C(C=N4)C5=CC=NC6=CC=CC=C56)N=C3 [DM3189] + C[C@@H](Oc1cc(-c2cnn(C3CCNCC3)c2)cnc1N)c1c(Cl)ccc(F)c1Cl [Crizotinib] (partner 1 µM)
Summary of the method: as §1

DM3189 + Olaparib = compound: C1CN(CCN1)C2=CC=C(C=C2)C3=CN4C(=C(C=N4)C5=CC=NC6=CC=CC=C56)N=C3 [DM3189] + O=C(c1cc(Cc2n[nH]c(=O)c3ccccc23)ccc1F)N1CCN(C(=O)C2CC2)CC1 [Olaparib] (partner 8 µM)
Summary of the method: as §1

Cell Line	relative viability (DM3189 + Trametinib; first compound 0.08 µM)	relative viability (DM3189 + Trametinib; first compound 0.253 µM)	relative viability (DM3189 + Trametinib; first compound 0.8 µM)	relative viability (DM3189 + Trametinib; first compound 2.53 µM)	relative viability (DM3189 + Linsitinib; first compound 0.08 µM)	relative viability (DM3189 + Linsitinib; first compound 0.253 µM)	relative viability (DM3189 + Linsitinib; first compound 0.8 µM)	relative viability (DM3189 + Linsitinib; first compound 2.53 µM)	relative viability (DM3189 + Pemetrexed; first compound 0.08 µM)	relative viability (DM3189 + Pemetrexed; first compound 0.253 µM)	relative viability (DM3189 + Pemetrexed; first compound 0.8 µM)	relative viability (DM3189 + Pemetrexed; first compound 2.53 µM)	relative viability (DM3189 + Crizotinib; first compound 0.08 µM)	relative viability (DM3189 + Crizotinib; first compound 0.253 µM)	relative viability (DM3189 + Crizotinib; first compound 0.8 µM)	relative viability (DM3189 + Crizotinib; first compound 2.53 µM)	relative viability (DM3189 + Olaparib; first compound 0.08 µM)	relative viability (DM3189 + Olaparib; first compound 0.253 µM)	relative viability (DM3189 + Olaparib; first compound 0.8 µM)	relative viability (DM3189 + Olaparib; first compound 2.53 µM)
201T	0.729	0.743	0.728	0.734	1.07	1.03	1.01	1.08	0.347	0.322	0.279	0.331	1.06	1.03	1	1.07	0.822	0.882	0.859	0.765
A-427	0.865	0.736	0.638	0.819	1.1	1.03	1.11	1.33	1.17	0.897	0.954	1	0.904	0.854	0.811	0.95	0.832	0.753	0.512	0.807
ABC-1	–	–	–	–	0.806	0.894	0.752	0.783	–	–	–	–	1.07	0.991	0.991	0.668	1.04	0.594	0.676	0.718
BEN	0.982	1.01	1.11	1.21	0.935	0.828	0.957	0.778	0.985	0.72	0.776	0.796	0.881	0.865	0.944	0.987	1.13	1.12	0.852	1.08
CAL-12T	0.405	0.339	0.384	0.488	0.714	0.823	0.925	0.884	1.2	1.06	1.09	0.921	0.508	0.658	0.704	0.543	0.713	0.618	0.681	0.803
COR-L23	0.707	0.507	0.529	0.549	0.94	1.01	0.559	0.742	0.181	0.179	0.174	0.21	0.633	0.455	0.679	0.583	0.439	0.264	0.245	0.303
COR-L 105	0.467	0.488	0.471	0.504	0.905	1.08	0.804	1.25	1.13	1.22	1.26	1.13	0.864	0.685	0.603	0.538	0.855	0.772	0.545	0.812
ChaGo-K-1	0.937	0.876	0.919	0.936	–	–	–	–	0.255	0.266	0.261	0.264	1.03	1.1	0.97	1.09	0.48	0.393	0.369	0.439
